Measured values published in ChEMBL document CHEMBL4145553, “Design, synthesis, and biological evaluation of novel amide and hydrazide based thioether analogs targeting Histone deacteylase (HDAC) enzymes” (Eur J Med Chem, 2018).
Active and inactive are the calls of the source. The rule behind the calls is not given here.

Tests used:
[1] = tested on: SNB-19; assay: Growth inhibition of human SNB19 cells assessed as cell growth at 10^-5 M incubated for 48 hrs by sulforhodamine B assay relative to control; assay type: functional; settings: SNB-19, 48 h, read-out: Activity
[2] = tested on: MDA-MB-435; assay: Induction of apoptosis in human MDA-MB-435 cells assessed as early apoptotic cells by propidium iodide/Annexin V staining based flow cytometry (reference value: 0.25%); assay type: functional
[3] = tested on: MDA-MB-231; assay: Growth inhibition of human MDA-MB-231 cells assessed as cell growth at 10^-5 M incubated for 48 hrs by sulforhodamine B assay relative to control; assay type: functional; settings: MDA-MB-231, 48 h, read-out: Activity
[4] = tested on: NCI-H322M; assay: Growth inhibition of human NCI-H322M cells incubated for 48 hrs by sulforhodamine B assay; assay type: functional
[5] = tested on: UO-31; assay: Growth inhibition of human UO31 cells incubated for 48 hrs by sulforhodamine B assay; assay type: functional; settings: UO-31, 48 h
[6] = tested on: UO-31; assay: Growth inhibition of human UO31 cells assessed as cell growth at 10^-7 M incubated for 48 hrs by sulforhodamine B assay relative to control; assay type: functional; settings: UO-31, 48 h, read-out: Activity
[7] = tested on: MDA-MB-435; assay: Induction of apoptosis in human MDA-MB-435 cells assessed as increase in caspase-3 expression by qRT-PCR method; assay type: functional, cell-based
[8] = tested on: HL-60(TB); assay: Growth inhibition of human HL-60(TB) cells assessed as cell growth at 10^-5 M incubated for 48 hrs by sulforhodamine B assay relative to control; assay type: functional; settings: HL-60, 48 h, read-out: Activity
[9] = tested on: A498; assay: Growth inhibition of human A498 cells assessed as cell growth at 10^-7 M incubated for 48 hrs by sulforhodamine B assay relative to control; assay type: functional; settings: A498, 48 h, read-out: Activity
[10] = tested on: OVCAR-4; assay: Growth inhibition of human OVCAR4 cells assessed as cell growth at 10^-5 M incubated for 48 hrs by sulforhodamine B assay relative to control; assay type: functional; settings: OVCAR-4, 48 h, read-out: Activity
[11] = tested on: TK-10; assay: Growth inhibition of human TK10 cells assessed as cell growth at 10^-4 M incubated for 48 hrs by sulforhodamine B assay relative to control; assay type: functional; settings: TK-10, 48 h, read-out: Activity
[12] = tested on: MDA-MB-231; assay: Growth inhibition of human MDA-MB-231 cells assessed as cell growth at 10^-6 M incubated for 48 hrs by sulforhodamine B assay relative to control; assay type: functional; settings: MDA-MB-231, 48 h, read-out: Activity
[13] = tested on: OVCAR-5; assay: Growth inhibition of human OVCAR5 cells assessed as cell growth at 10^-6 M incubated for 48 hrs by sulforhodamine B assay relative to control; assay type: functional; settings: OVCAR-5, 48 h, read-out: Activity
[14] = tested on: Malme-3M; assay: Growth inhibition of human MALME-3M cells assessed as cell growth at 10^-4 M incubated for 48 hrs by sulforhodamine B assay relative to control; assay type: functional; settings: read-out: Activity
[15] = tested on: SF-268; assay: Growth inhibition of human SF268 cells incubated for 48 hrs by sulforhodamine B assay; assay type: functional; settings: SF-268, 48 h
[16] = tested on: SF-268; assay: Growth inhibition of human SF268 cells assessed as cell growth at 10^-8 M incubated for 48 hrs by sulforhodamine B assay relative to control; assay type: functional; settings: SF-268, 48 h, read-out: Activity
[17] = tested on: SNB-19; assay: Growth inhibition of human SNB19 cells assessed as cell growth at 10^-4 M incubated for 48 hrs by sulforhodamine B assay relative to control; assay type: functional; settings: SNB-19, 48 h, read-out: Activity
[18] = tested on: EKVX; assay: Growth inhibition of human EKVX cells assessed as cell growth at 10^-4 M incubated for 48 hrs by sulforhodamine B assay relative to control; assay type: functional; settings: read-out: Activity
[19] = tested on: T47D; assay: Growth inhibition of human T47D cells assessed as cell growth at 10^-6 M incubated for 48 hrs by sulforhodamine B assay relative to control; assay type: functional; settings: read-out: Activity
[20] = tested on: BT-549; assay: Growth inhibition of human BT549 cells assessed as cell growth at 10^-5 M incubated for 48 hrs by sulforhodamine B assay relative to control; assay type: functional; settings: BT-549, 48 h, read-out: Activity
[21] = tested on: HCT-15; assay: Growth inhibition of human HCT15 cells incubated for 48 hrs by sulforhodamine B assay; assay type: functional; settings: HCT-15, 48 h
[22] = tested on: IGROV-1; assay: Growth inhibition of human IGROV1 cells assessed as cell growth at 10^-7 M incubated for 48 hrs by sulforhodamine B assay relative to control; assay type: functional; settings: IGROV-1, 48 h, read-out: Activity
[23] = tested on: UO-31; assay: Growth inhibition of human UO31 cells assessed as cell growth at 10^-8 M incubated for 48 hrs by sulforhodamine B assay relative to control; assay type: functional; settings: UO-31, 48 h, read-out: Activity
[24] = tested on: MDA-MB-435; assay: Downregulation of HDAC2 mRNA expression in human MDA-MB-435 cells by qRT-PCR method relative to control; assay type: functional
[25] = tested on: MDA-MB-435; assay: Growth inhibition of human MDA-MB-435 cells assessed as cell growth at 10^-7 M incubated for 48 hrs by sulforhodamine B assay relative to control; assay type: functional; settings: MDA-MB-435, 48 h, read-out: Activity
[26] = tested on: Malme-3M; assay: Growth inhibition of human MALME-3M cells assessed as cell growth at 10^-5 M incubated for 48 hrs by sulforhodamine B assay relative to control; assay type: functional; settings: read-out: Activity
[27] = tested on: NCI-H23; assay: Growth inhibition of human NCI-H23 cells incubated for 48 hrs by sulforhodamine B assay; assay type: functional; settings: NCI-H23, 48 h
[28] = tested on: OVCAR-4; assay: Growth inhibition of human OVCAR4 cells assessed as cell growth at 10^-8 M incubated for 48 hrs by sulforhodamine B assay relative to control; assay type: functional; settings: OVCAR-4, 48 h, read-out: Activity
[29] = tested on: ACHN; assay: Growth inhibition of human ACHN cells incubated for 48 hrs by sulforhodamine B assay; assay type: functional
[30] = tested on: M14; assay: Growth inhibition of human M14 cells assessed as cell growth at 10^-6 M incubated for 48 hrs by sulforhodamine B assay relative to control; assay type: functional; settings: M14, 48 h, read-out: Activity
[31] = tested on: UACC-62; assay: Growth inhibition of human UACC62 cells assessed as cell growth at 10^-8 M incubated for 48 hrs by sulforhodamine B assay relative to control; assay type: functional; settings: UACC-62, 48 h, read-out: Activity
[32] = read-out: LC50 (the source's name)
[33] = read-out: pLC50 (the source's name) (converted)

`CCS/C(Nc1ccccc1)=C(\C#N)C(=O)N/N=C\c1ccc(Cl)cc1Cl` gave a growth at 10 µM [1] of 28%, an Activity [2] of 2.52% and a growth at 10 µM [3] of 32%. The GI50 ([4]; read-out: GI50) was 6.87 µM, the CC50 [4, 32] was greater than 100 µM and the TGI ([4]; read-out: TGI) was greater than 100 µM. The GI50 ([4]; read-out: pGI50 (converted)) was 6.92 µM, the CC50 [4, 33] was greater than 100 µM and the TGI ([4]; read-out: pTGI) was greater than 100 µM. The GI50 ([5]; read-out: GI50) was 6.91 µM, the CC50 [5, 32] was greater than 100 µM and the TGI ([5]; read-out: TGI) was greater than 100 µM. It also gave a GI50 ([5]; read-out: pGI50 (converted)) of 6.92 µM, a CC50 [5, 33] greater than 100 µM and a TGI ([5]; read-out: pTGI) greater than 100 µM. The growth at 0.1 µM [6] was 90%, the Activity [7] was “Active” and the growth at 10 µM [8] was 8%. It also gave a growth at 0.1 µM [9] of 78%, a growth at 10 µM [10] of 42% and a growth at 100 µM [11] of 42%. For the same molecule, the growth at 1 µM [12] was 89%, the growth at 1 µM [13] was 101% and the growth at 100 µM [14] was 26%. The GI50 ([15]; read-out: GI50) was 6.58 µM, the CC50 [15, 32] was greater than 100 µM and the TGI ([15]; read-out: TGI) was greater than 100 µM. The GI50 ([15]; read-out: pGI50 (converted)) was 6.61 µM, the CC50 [15, 33] was greater than 100 µM and the TGI ([15]; read-out: pTGI) was greater than 100 µM. It also gave a growth at 0.01 µM [16] of 94%, a growth at 100 µM [17] of 21% and a growth at 100 µM [18] of 29%. The growth at 1 µM [19] was 89%, the growth at 10 µM [20] was 18% and the GI50 ([21]; read-out: GI50) was 2.9 µM. It also gave a CC50 [21, 32] greater than 100 µM, a TGI ([21]; read-out: TGI) greater than 100 µM and a GI50 ([21]; read-out: pGI50 (converted)) of 2.88 µM. The CC50 [21, 33] was greater than 100 µM, the TGI ([21]; read-out: pTGI) was greater than 100 µM and the growth at 0.1 µM [22] was 98%. The growth at 0.01 µM [23] was 94%, the “fold change (FC)” value [24] was “<=10” and the growth at 0.1 µM [25] was 86%. It also gave a growth at 10 µM [26] of 49%, a GI50 ([27]; read-out: GI50) of 6.47 µM and an LC50 ([27]; read-out: LC50) greater than 100 µM. For the same molecule, the TGI ([27]; read-out: TGI) was greater than 100 µM, the GI50 ([27]; read-out: pGI50 (converted)) was 6.46 µM and the LC50 ([27]; read-out: pLC50 (converted)) was greater than 100 µM. The TGI ([27]; read-out: pTGI) was greater than 100 µM, the growth at 0.01 µM [28] was 98% and the GI50 ([29]; read-out: GI50) was 7.08 µM. It also gave a CC50 [29, 32] greater than 100 µM, a TGI ([29]; read-out: TGI) greater than 100 µM and a GI50 ([29]; read-out: pGI50 (converted)) of 7.08 µM. The CC50 [29, 33] was greater than 100 µM, the TGI ([29]; read-out: pTGI) was greater than 100 µM and the growth at 1 µM [30] was 72%. For the same molecule, the growth at 0.01 µM [31] was 92%.
